For orientation: IC50 means the concentration needed to halve the response being measured.

“Also recorded” adds a separate entry of the source. Where two headings read alike, the source gives them in different places.

For data set [1], the system named is embryonic rat cortical cells. Description: Aβ toxicity assay, calcein-AM/propidium iodide staining. The following applies: 5 μM Aβ + 10 μM GW5074, 48 h. It is filed as cell-based.
The test system of another data set is pNFκB/p65 (Ser276). Description: Aβ-dependent NFκB/p65 phosphorylation at serine 276 in cortical cells, Western blot. It is filed as cell-based, rat. The following applies: 10 μM GW5074 + 5 μM Aβ, 48 h, in comparison to Aβ treated cells. A general note: A western blot detects proteins with antibodies after separation by electrophoresis.
Data set [2] relates to embryonic rat cortical cells. In words: Aβ toxicity assay, cell viability by MTT. It is filed as cell-based. The following applies: 5 μM Aβ + 10 μM inhibitor, 48 h; Aβ alone 73% (GW5074 experiment), 70% (ZM336372 experiment).
The subject of a further data set is Aβ42. In words: Total Aβ42 levels in cortex, ELISA. It is filed as in vivo. Conditions: Tg mice, ns vs Tg. As to the method:
Determination of Aβ levels. The levels of Aβ1-40 and Aβ1-42 were quantified in the brain tissues by ELISA.
Total Aβ levels. Brain tissues were prepared by sonication of the samples in 5 M guanidine HCl, and 50 mM Tris-HCl. pH 8.0. After sonication, samples were incubated for 3 h at room temperature and centrifuged at 16,000×g for 20 min at 4° C. The supernatants were stored at −80° C. For analysis, the supernatants were diluted using PBS with 5% BSA and 0.03% Tween-20 supplemented with 1× protease inhibitor cocktail (Roche, USA) and further used to determine total Aβ levels using a commercial ELISA kit (Invitrogen, Carlsbad, Calif., USA), according to the manufacturer's recommendations.
Aβ levels represent the concentration of amyloid peptides in the cortex (A, C) and hippocampus (B, D) of the mice expressed as picogram by milligram (pg/mg) of brain tissue. Total peptide levels correspond to the levels found in the supernatant of cortical tissues homogenized in 5 M guanidinium chloride. Soluble Aβ levels correspond to the levels found in the supernatant of hippocampal tissues of the mice homogenized in the Triton-soluble fractions. ns, Not significant (P>0.05).
A general note: In an ELISA, binding on a coated surface is turned into a signal by an enzyme label.

The test system of a further data set is Cox-2. In words: Cox-2 levels in cortex of mice, Western blot. In kind it is in vivo. Conditions: for levels of Cox-2 vs control Tg mice: cortex, 20 mg/kg/day, four months.
Data set [3] relates to PKA. In words: PKA kinase activity ELISA in brain extracts of treated mice. The following applies: Tg mice, four months treatment.
The next data set has as its system pcRaf-1[Ser338]. In words: pcRaf-1[Ser338] levels in cortex of mice, Western blot. In kind it is in vivo. Conditions: wild type NT mice.
The test system of the next data set is iNOS. In words: iNOS levels in cortex of mice, Western blot. It is filed as in vivo. The source says:
(§1) FIGS. 5A-5E. […] NT, wild type age-matched control littermates.
(§2) Western blotting. […] (1:100) (GenScript Corporation, NJ, USA).

The test system of the next data set is pNF-κB[Ser276]. In words: pNF-κB[Ser276] levels in cortex of mice, Western blot. In kind it is in vivo. Conditions: for levels of pNF-κB[Ser276] vs control Tg mice: cortex, 20 mg/kg/day, four months.
From the text: as §1, §2

The subject of data set [4] is APPswe (Tg) and NT mice. Description: Cognitive interference task of working memory. In kind it is in vivo. The text has this:
Interference test details. Cognitive Interference Task. This task involves two radial arm water maze set-ups in two different rooms, and different sets of visual cues. The task requires animals to remember a set of visual cues, so that following interference with a different set of cues, the initial set of cues can be recalled to successfully solve the radial arm water maze task. A set of […] behavioral measures were examined. Behavioral measures are: A1-A3 (Composite three-trial recall score from first 3 trials performed in RAWM “A”), “B” (proactive interference measure attained from a single trial in RAWM “B”), A4 (retroactive interference measure attained during a single trial in RAWM “A”), and “A5” (delayed-recall measure attained from a single trial in RAWM “A” following a 20 min delay between A4 and A5). As with the standard RAWM task, this interference task involves the platform location being changed daily to a different arm for both of the RAWM set-ups utilized, and different start arms for each day of testing for both RAWM set-ups. For A1 and B trials, the animal is initially allowed one minute to find the platform on their own before they are guided to the platform. Then the actual trial is performed in each case. As with the standard RAWM task, animals were given 60-s to find the escape platform, with the number of errors and escape latency recorded for each trial.
Cognitive interference task. This task involves two RAWM setups in two different rooms, and three different sets of visual cues. The task requires animals to remember a set of visual cues, so that following interference with a different set of cues, the initial set of cues can be recalled to successfully solve the RAWM task. A set of four behavioral measures was examined through six successive daily trials. Behavioral measures were A1-A3 (Composite three-trial recall score from first three trials performed in RAWM “A”), “B” (proactive interference measure attained from a single trial in RAWM “B”), A4 (retroactive interference measure attained during a single trial in RAWM “A”), and “A5” (delayed-recall measure attained from a single trial in RAWM “A” following a 20 min delay between A4 and A5). As with the standard RAWM task, this interference task involves the platform location being changed daily to a different arm for both of the RAWM setups utilized, and different start arms for each day of testing for both RAWM setups. For A1 and B trials, the animal is initially allowed 1 min to find the platform on its own before being guided to the platform. Then the actual trial is performed in each case. Also, between each trial, animals were placed into a Y-maze apparatus for 30 seconds as an inter-trial interfering experience. As with the standard RAWM task, animals were given 60 s to find the escape platform for each trial, with the number of errors and escape latency recorded for each trial.
For statistical analysis of RAWM data, the 8 days of pre-treatment testing (four 2-day blocks) or the 9 days of during-treatment testing (three 3-day blocks) were evaluated for individual blocks, as well as over all blocks, using one-way ANOVAs. Thereafter, post hoc pair-by-pair differences between groups were resolved with the Fisher LSD (least significant difference) test.

For data set [5] the following is noted: Kane et al. (2006); cited from earlier work.
The subject of another data set is p-CREB[Ser 133]. In words: CREB phosphorylated at Ser 133 in cortex, Western blot. In kind it is in vivo. The following applies: Tg mice, four months treatment, vs control Tg mice.
From the text: as §2

The next data set deals with Aβ40. In words: Total Aβ40 levels in cortex, ELISA. The following applies: Tg mice, Study 2 (4 mo. treatment), ns vs Tg. In kind it is in vivo.
The test system of the next data set is ppErk1/2. Description: ppERK levels in cortex of mice, Western blot. In kind it is in vivo. The method, then:
FIGS. 4A-4C. […] After this time mice were sacrificed and the levels of pcRaf-1[Ser338] and pERK1/2 were analyzed by Western blot as described in Experimental Procedures. […] (n=5) (FIG. 4B) in the cortex than untreated Tg mice (n=4). The differences were significant for ppERKs, *P=0.016 and pcRaf-1[Ser338], *P=0.018. (FIG. 4C) Phosphorylation of cRaf-1 at Ser 259 and Ser 338. […] NT, wild-type age-matched control littermates.
as §2

For data set [6], the system named is APPswe (Tg) and NT mice. It is filed as in vivo. The following applies: during treatment (20 mg/kg/day). The text has this: RAWM. For the RAWM task of spatial working memory (Arendash et al. (2001b); Arendash et al. (2007); Ethell et al. (2006)), an aluminum insert was placed into a 100 cm circular pool to create six radially distributed swim arms emanating from a central circular swim area (Arendash et al. (2001a); Ethell et al. (2006)). An assortment of 2-D and 3-D visual cues surrounded the pool. The number of errors prior to locating which one of the six swim arms contained a submerged escape platform (9 cm diameter) was determined in each of five trials every day. There was a 20-min time delay between the 4th trial (T4; final acquisition trial) and 5th trial (T5; memory retention trial). […] During each trial (60 s maximum), the mouse was returned to that trial's start arm upon swimming into an incorrect arm and the number of seconds required to locate the submerged platform was recorded. […]
For statistical analysis of RAWM data, the 8 days of pre-treatment testing (four 2-day blocks) or the 9 days of during-treatment testing (three 3-day blocks) were evaluated for individual blocks, as well as over all blocks, using one-way ANOVAs. […] One-way ANOVAs were employed for each of the four behavioral measures analyzed, followed by post hoc Fisher's LSD test to determine group differences. […]

A further data set concerns IκBα. Description: IκBα levels in cortex of mice, Western blot. The following applies: two months treatment.
For data set [7], the system named is PKA. Conditions: cited from earlier work.
Where [8] appears, read: wild type mice (data not shown).

For `O=C1Nc2ccc(I)cc2/C1=C/c1cc(Br)c(O)c(Br)c1` [GW5074, 5-iodo-3-[(3,5-dibromo-4-hydroxyphenyl)methy-lene]-2-indolinone], the “number of PI stained cells after Aβ exposure” value in [1] is on record as “decreased dramatically”. Further, the “NFκB/p65 phosphorylation at serine 276” value in the data set with pNFκB/p65 (Ser276) is on record as “nine-fold decrease”. Further, the “cell survival, % of control levels (MTT)” value in data set [2] is recorded as 93%.
Consider `CNC(=O)c1cc(Oc2ccc(NC(=O)Nc3ccc(Cl)c(C(F)(F)F)c3)cc2)ccn1` [Sorafenib, 4-(4-phenoxy)-N2-methylpyridine-2 carboxamide 4-methylbenzenesulfonate], for which the Aβ42 total levels with Aβ42 (Study 1 (2 mo. treatment)) was 22,570 ± 5,946 ns, P = 0.4568 pg/mg; in the data set with Aβ42 (Study 2 (4 mo. treatment)), 71,980 ± 26,210 ns, P = 0.9914 pg/mg. Further, the results for the “levels of Cox-2 vs control Tg mice” value in the data set on Cox-2 and with Cox-2 (listed as sorafenib) were “lower levels” and “substantially lower levels”, respectively. Besides, the “Cox-2 levels vs untreated wild type mice” value with Cox-2 (setting [8]) is recorded as “No differences”. The results for the “PKA activity in cortex” value in the data set on PKA [3] and with PKA [3] (listed as sorafenib) were “restored PKA activity in Tg mice to values similar to those observed in NT mice” and “comparable to NT mice”, respectively. The “cRaf-1 phosphorylation vs untreated NT mice” value with pcRaf-1[Ser338] was “No changes”. Further, the “lower expression of iNOS than control Tg mice” value in the data set on iNOS (Tg mice, cortex, 20 mg/kg/day, four months) is recorded as 81%. Moreover, the “iNOS levels vs untreated wild type mice” value in the data set with iNOS (setting [8]) is “No differences”. For the same compound, the “levels of pNF-κB[Ser276] vs control Tg mice” value in the data set on pNF-κB[Ser276] is “significantly lower levels”; with pNF-κB[Ser276] (listed as sorafenib), “significantly reduced”. In the data set on pNF-κB[Ser276] (setting [8]), the “pNF-κB[Ser276] levels vs untreated wild type mice” value is “No differences”. For the same compound, in the data set on APPswe (Tg) and NT mice [4] (APPswe mice, 2 months treatment, p<0.01), the “working memory in interference test vs vehicle-treated APPswe mice” value is listed as “significant improvement in working memory”. Besides, the “performance in any measure of cognitive interference testing, NT+sorafenib vs NT” value in the data set on APPswe (Tg) and NT mice [4] (NT mice) is recorded as “no differences in performance”. In the data set on APPswe (Tg) and NT mice [4] (Tg mice, final day of testing), the “20-min delayed recall (A5), beneficial effects” value is given as “not evident”. Also, the “three-trial recall (A1-A3)” value with APPswe (Tg) and NT mice [4] (Tg mice, final day of testing, errors and escape latency) is on record as “performed identically to NT mice; also recorded: comparable to NT controls”; in the data set with APPswe (Tg) and NT mice [4] (Tg mice, first day of interference testing, compared to NT mice), “impaired”. Besides, the “20-min delayed recall (A5)” value in the data set on APPswe (Tg) and NT mice [4] (Tg mice, first day of testing) was “significantly better and no different from NT mice; also recorded: much better delayed recall performance”. Further, the “proactive interference (B)” value in the data set on APPswe (Tg) and NT mice [4] (Tg mice, first day of testing) is “relatively high escape latency”; with APPswe (Tg) and NT mice [4] (Tg mice, last day of testing), “performed significantly better than Tg controls and identically to NT mice; also recorded: performed substantially better than Tg controls”. In addition, in the data set with APPswe (Tg) and NT mice [4] (first and last day of testing), the “retroactive interference (A4)” value is given as “no effect of genotype or sorafenib treatment”. The blood-brain barrier entry in data set [5] was “crosses the blood-brain barrier”. The “CREB phosphorylation at Ser 133 in cortex” value in the data set on p-CREB[Ser 133] is given as “significantly increased; also recorded: significantly higher”. Also, the Aβ40 total levels in the data set with Aβ40 is reported as 36,140 ± 9.281 ns, P = 0.5193 pg/mg. Besides, in the data set on ppErk1/2 (Tg mice, cortex, 20 mg/kg gavage, two months), the “decrease in levels of ppERK compared to control Tg mice” value is 29%. Also, in the data set with ppErk1/2 (wild type NT mice), the “ERK phosphorylation vs untreated NT mice” value is “No changes”. In addition, the “T5 errors over all blocks of RAWM testing” value in the data set on APPswe (Tg) and NT mice [6] (NT mice, NT vehicle 0.9±0.4) worked out at 1.1±0.2 errors; with APPswe (Tg) and NT mice [6] (Tg mice, Tg vehicle 1.9±0.3), 1.9±0.2 errors. The “higher levels of IκBα protein expression compared to control Tg mice” value in the data set on IκBα is given as 117%. Further, the IC50 in the data set with PKA [7] was more than 10 µM.
Turning to `Cc1ccc(NC(=O)c2cccc(N(C)C)c2)cc1NC(=O)c1ccc(O)cc1` [ZM336372, N-[5-(dimethyl-aminobenzamide)-2-methylphenyl]-4-hydroxybenzamide], the “cell survival, % of control levels (MTT)” value in [2] is reported as 86%.

The record behind these values is US20110243957A1, “MATERIALS AND METHODS FOR PREVENTING OR TREATING NEURODEGENERATIVE CONDITIONS ASSOCIATED WITH ABETA PEPTIDE ACCUMULATION” (University of South Florida, priority 2008, published 2011).
